Results taken from patent publication US20100068150A1, “Selective Caspase Inhibitors” (The Board of Trustees of the Leland Stanford Junior …, priority 2006, published 2010).
Residues, ends and D or L forms follow the SMILES beside them. *: point of attachment. Cbz = O=C(OCc1ccccc1)*; CH2F = FC*

Key:
[1] = molecular target: T1, mature p20 forms of caspase-7 (Homo sapiens, UniProt P55210); assay: Inhibitor specificity in hypotonic 293 extracts, mature p20 caspase-7; type: biochemical; conditions: inhibitor 20 μM for 5 min, then KMB01 30 min
T1 construct: p20 is mature large subunit of caspase-7 with N-terminal peptide removed; processing of the zymogen to the large and small subunits by activity of the initiator caspases; endogenous in cells
T1 sequence (P55210 24-198 limits assumed): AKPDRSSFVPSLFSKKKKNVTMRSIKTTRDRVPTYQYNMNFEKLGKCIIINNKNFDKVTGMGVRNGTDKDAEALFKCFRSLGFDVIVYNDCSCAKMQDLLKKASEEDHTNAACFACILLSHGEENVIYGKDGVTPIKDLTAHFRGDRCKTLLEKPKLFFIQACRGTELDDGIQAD
T1 sequence (P55210 207-303 limits assumed): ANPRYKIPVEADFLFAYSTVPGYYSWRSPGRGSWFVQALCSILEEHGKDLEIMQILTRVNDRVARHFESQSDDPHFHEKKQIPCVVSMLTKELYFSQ
Source text: (§1) FIGS. 6 A-E illustrate that full-length active caspase-7 has unique inhibitor specificity and is processed to mature forms by downstream executioner caspases. (A) The caspase-3 specific inhibitor causes accumulation of a catalytically active full-length form of caspase-7. Cytosolic extracts from 293 cells were activated with cytochrome c/dATP for the indicated times followed by labeling with KMB01 (left panel) and western blotting with a caspase-7 specific antibody (right panel) as in FIG. 5A. […] (B) The exact same experiment as (A) except extracts from MCF-7 cells were used in place of 293 extracts. (**) indicates forms of caspase-7 that are likely a result of the alternative transcription start site at methionine-45 (C) Quantification of the relative activity of FL-C7 in uninhibited 293 extracts (from FIG. 5A), AB06 treated 293 extracts (from (A)) and uninhibited MCF-7 extracts (from (B)) (D) Inhibitor specificity of full-length and processed forms of caspase-7. Extracts (293) were activated for 5 min with cytochrome c/dATP and then incubated with NP-capped AOMK inhibitors containing the indicated primary amino acid sequences for 5 minutes before KMB01 was added and allowed to label residual caspase active sites for 30 minutes. Samples were analyzed by SDS-PAGE followed by biotin blotting using strepavidin-HRP (left panel) or western blotting for caspase-7 (right panel). Identities of labeled caspases are indicated. (E) Specificity of AB06 after prolonged incubation times. Extracts were treated with AB06 at the indicated concentrations simultaneously with cytochrome c/dATP. At the indicated times after activation, samples were labeled with KMB01 (10 μM) for 30 minutes. Labeled caspases were resolved by SDS-PAGE analysis followed by biotin blotting using strepavidin-HRP.
An additional surprising finding from the inhibitor studies was the overall lack of inhibition of the FL-C7 species by AB06 relative to mature p20 forms of caspase-7. This was surprising since the sequence of AB06 (NP-D3VD-AOMK) differs from the KMB01 probe sequence (Bio-EVD-AOMK) only at the P3 residue. […] We therefore wanted to use inhibitors to compare the ability of different P3 elements to bind to full-length and p20 mature forms of caspase-7. […] Samples were analyzed for active site labeling and protein levels of both full-length and p20 forms of caspase-7 were monitored by western blot (FIG. 6D).
(§2) Hypotonic 293 extracts (73 μg of total protein) were activated at 37° C. for 5 minutes as described above. […] Samples (13.5 μg total protein) were analyzed by SDS-PAGE and biotin blotting as described above

[2] = molecular target: T2, FL-C7 (full-length caspase-7) (Homo sapiens, UniProt P55210); assay: Inhibitor specificity in hypotonic 293 extracts, full-length caspase-7; type: biochemical; conditions: inhibitor 20 μM for 5 min, then KMB01 30 min
T2 construct: the p37 band as the full-length caspase-7 with intact N-terminus (FL-C7); endogenous in cells
T2 sequence (P55210 1-303): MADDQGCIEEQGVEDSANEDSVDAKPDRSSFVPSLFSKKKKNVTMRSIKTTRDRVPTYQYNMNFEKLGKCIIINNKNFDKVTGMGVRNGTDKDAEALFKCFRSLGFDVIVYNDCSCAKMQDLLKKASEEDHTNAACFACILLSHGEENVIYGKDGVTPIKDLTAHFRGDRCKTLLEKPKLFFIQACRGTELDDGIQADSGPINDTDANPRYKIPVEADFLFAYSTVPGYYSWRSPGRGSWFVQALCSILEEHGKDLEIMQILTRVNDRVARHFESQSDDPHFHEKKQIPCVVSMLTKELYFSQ
Source text: as §1
To further confirm our assignment of the labeled species we treated samples at various activation times with purified recombinant Bir3 domain of XIAP. […]
An additional surprising finding from the inhibitor studies was the overall lack of inhibition of the FL-C7 species by AB06 relative to mature p20 forms of caspase-7. […] Samples were analyzed for active site labeling and protein levels of both full-length and p20 forms of caspase-7 were monitored by western blot (FIG. 6D).
Hypotonic 293 extracts (73 μg of total protein) were activated as described above and allowed to incubate for the indicated times. […] Labeling was carried out for an additional 30 minutes and samples (13.5 μg total protein) were analyzed by SDS-PAGE and biotin blotting as described above.
as §2

cathepsin B and legumain = assay: In vivo labeling of cathepsin B and legumain in kidney and spleen of normal mice; conditions: intravenous, tissues collected 2 hrs after injection
Protocol: The present selective caspase inhibitors may be used for in vivo imaging. Cy5-fluorescent labeled versions of AB46 and AB50 were injected into normal mice and labeling of cathepsins and legumain in kidney and spleen was monitored (FIG. 14).
Normal mice were intravenously injected with the probes and tissues were collected 2 hrs after injection. Tissues were homogenized and total protein samples were analyzed by SDS-PAGE followed by scanning of the gel using a fluorescent scanner.

Caspase-3 = molecular target: T3, Caspase-3 (Homo sapiens, UniProt P42574); assay: Kinetic compound screening, progress curve method, caspase-3; type: biochemical
T3 sequence (P42574 29-175 limits assumed): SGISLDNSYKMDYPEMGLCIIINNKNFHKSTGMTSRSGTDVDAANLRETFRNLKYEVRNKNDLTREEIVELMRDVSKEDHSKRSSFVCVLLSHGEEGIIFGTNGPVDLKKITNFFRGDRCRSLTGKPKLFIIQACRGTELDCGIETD
T3 sequence (P42574 176-277 limits assumed): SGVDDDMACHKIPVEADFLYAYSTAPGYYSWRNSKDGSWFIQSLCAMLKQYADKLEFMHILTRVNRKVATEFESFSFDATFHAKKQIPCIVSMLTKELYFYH
Source text: (§3) Table III below presents Ki(app) values for select AB compounds. Ki(app) values (also called Kass or Kobs/I) represent the speed of inhibitor binding to a target enzyme. Units are [M^−1s^−1]. NI indicates no inhibition at concentrations tested. Parent compounds AB09, ABo8, and AB07 that include the optimal substrate specificity sequences for caspases-3, […] as determined by Thornberry and colleagues (Thornberry et al., 19970 are included between double lines.
(§4) The inhibitors AB07 (NP-LEHD-AOMK, caspase-9), AB08 (NP-LETD-AOMK, caspase-8), and AB09 (NP-DEVD-AOMK, caspase-3) were synthesized and kinetic inhibition constants (Kiapp) were obtained for all compounds for caspases 3, 7, 8 and 9 using the progress curve method for pseudo-first order reactions kinetics (Salvesen, 1989) (structures shown in Table I). […] Ki(app) values (also called Kass or Kobs/I) represent the speed of inhibitor binding to a target enzyme. Units are [M-1s-1]. NI indicates no inhibition at concentrations tested, ND indicates data not determined, SD indicates standard deviation.
(§5) Compound screening was completed using the progress curve method as described (Salvesen, 1989). All screening was carried out in caspase reaction buffer. The caspase-9 specific compounds AB38, 40, 41 and 42 were screened in caspase reaction buffer and in caspase buffer with 1M sodium citrate instead of sucrose as described (Pop, 2006) The concentrations of active caspases used is as follows: 5 nM active caspase-3, 5 nM active caspase-7, 10 nM active caspase-8, and 50 nM active caspase-9. To ensure full activation, caspases 3/7, 8 and 9 were preincubated at 37° C. for 5, 10, or 40 minutes respectively before kinetic measurements were made.

Caspase-7 = molecular target: T4, Caspase-7 (Homo sapiens, UniProt P55210); assay: Kinetic compound screening, progress curve method, caspase-7; type: biochemical
T4 sequence (P55210 1-303): T2 sequence (P55210 1-303)
Source text: as §3, §4, §5

Caspase-8 = Caspase-8 (Homo sapiens, UniProt Q14790); assay: Kinetic compound screening, progress curve method, caspase-8; type: biochemical
Chain of Caspase-8 (Q14790 217-479): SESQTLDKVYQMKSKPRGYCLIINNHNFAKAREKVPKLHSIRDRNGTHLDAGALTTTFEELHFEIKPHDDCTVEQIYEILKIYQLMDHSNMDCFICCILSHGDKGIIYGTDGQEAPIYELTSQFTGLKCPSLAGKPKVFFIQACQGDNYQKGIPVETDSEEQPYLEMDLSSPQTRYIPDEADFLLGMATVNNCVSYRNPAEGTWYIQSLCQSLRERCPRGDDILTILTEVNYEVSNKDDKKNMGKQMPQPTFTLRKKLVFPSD
Source text: as §3, §4, §5

Caspase-9 = molecular target: T5, Caspase-9 (Homo sapiens, UniProt P55211); assay: Kinetic compound screening, progress curve method, caspase-9; type: biochemical; conditions: NI = no inhibition at concentrations tested
T5 sequence (P55211 1-416): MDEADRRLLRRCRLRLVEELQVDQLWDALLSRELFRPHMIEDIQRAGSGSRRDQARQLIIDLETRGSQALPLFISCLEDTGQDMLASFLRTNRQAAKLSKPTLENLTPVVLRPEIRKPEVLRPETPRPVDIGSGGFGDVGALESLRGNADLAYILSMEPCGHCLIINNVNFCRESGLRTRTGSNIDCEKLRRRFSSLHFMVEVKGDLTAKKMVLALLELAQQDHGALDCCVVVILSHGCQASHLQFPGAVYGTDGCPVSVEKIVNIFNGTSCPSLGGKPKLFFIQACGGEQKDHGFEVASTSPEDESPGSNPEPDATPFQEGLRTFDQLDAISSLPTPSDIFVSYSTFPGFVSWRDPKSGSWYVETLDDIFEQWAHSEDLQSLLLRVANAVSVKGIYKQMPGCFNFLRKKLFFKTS
Source text: as §3, §4, §5

[3] = test system: death receptor-mediated liver injury; conditions: animal models; cited from earlier work
[4] = test system: Myocardial infarction and the resulting death of myocytes; conditions: animal models; cited from earlier work
sepsis = conditions: mouse model; cited from earlier work
[5] = test system: extrinsic and intrinsic apoptotic pathways after spinal cord injury; conditions: animal models; cited from earlier work
[6] = test system: legumain and cathepsin B in RAW cell extracts; assay: Direct labeling of RAW cell extracts with Cy5 probes; type: binding; conditions: varying concentrations
Source text: Cy5 fluorescently labeled versions of the three best caspase probes were compared in direct labeling experiments using recombinant caspase-3 (FIG. 13, bottom panels) and RAW cell extracts (FIG. 13, top panels). […] All probes have similar reactivity towards recombinant caspase-3.

Compound: Cc1cccc(C)c1C(=O)OCC(=O)[C@H](CC(=O)O)NC(=O)[C@@H](NC(=O)[C@H](Cc1ccncc1)NC(=O)Cc1ccccc1)C(C)C [AB37, Cbz-3-V-D-AOMK]
- block of KMB01 labeling of mature p20 caspase-7 [1]: incomplete inhibition
- inhibition of FL-C7 labeling [2]: relatively insensitive to inhibition

Compound: Cc1cccc(C)c1C(=O)OCC(=O)[C@H](CC(=O)O)NC(=O)[C@@H](NC(=O)[C@H](CCC(=O)O)NC(=O)Cc1ccc(O)c([N+](=O)[O-])c1)C(C)C [AB45, Np-E-V- D-AOMK]
- block of KMB01 labeling of mature p20 caspase-7 [1]: efficiently blocked labeling
- inhibition of FL-C7 labeling [2]: almost totally inhibited

Compound: CC[C@H](NC(=O)[C@@H](CCC(=O)O)NC(=O)Cc1ccc(O)c([N+](=O)[O-])c1)C(=O)N[C@@H](CC(=O)O)C(=O)COC(=O)c1c(C)cccc1C [AB46, Np-E-8-D-AOMK]
- in vivo labeling in kidney and spleen (cathepsin B and legumain): significant labeling of both legumain and cathepsin B

Compound: COC(=O)C[C@H](NC(=O)[C@H](C)NC(=O)[C@@H](NC(=O)OCc1ccccc1)C(C)C)C(=O)CF [ZVAD-fmk, benzyloxycarbonyl-Val-Ala-Asp-fluoromethylketone, reference compound] (Cbz-Val-Ala-Asp(OMe)-CH2F)
- Ki(app) Caspase-3 (Caspase-3; Table III, Ki(app) = Kass or Kobs/I, 5 nM active caspase-3): 25922 M⁻¹ s⁻¹
- Caspase-3 Ki(app) (Caspase-3; Table IV): 25,922 M-1s-1
- Ki(app) Caspase-7 (Caspase-7; Table III, Ki(app) = Kass or Kobs/I, 5 nM active caspase-7): <5,000 M^−1s^−1
- Caspase-7 Ki (app) (Caspase-7; Table IV): <5,000 M-1s-1
- Ki(app) Caspase-8 (Caspase-8; Table III, Ki(app) = Kass or Kobs/I, 10 nM active caspase-8): 203286 M⁻¹ s⁻¹
- Caspase-8 Ki (app) (Caspase-8; Table IV, NI = no inhibition at concentrations tested): 203,286 M-1s-1
- Ki(app) Caspase-9 (Caspase-9; Table III, Ki(app) = Kass or Kobs/I, 50 nM active caspase-9): <5,000 M^−1s^−1
- Caspase-9 Ki (app) (Caspase-9; Table IV): <5,000 M-1s-1
- protection against liver injury [3]: protective and efficiently blocked death receptor-mediated liver injury
- effect on myocardial infarction and death of myocytes [4]: ameliorated
- effect on sepsis (sepsis): efficiently reduced
- effect after spinal cord injury [5]: reduced lesion size and improved motor function

Compound: Cy5-hex-EPD-AOMK [AB50-Cy5]
- direct labeling of off targets in RAW cell extracts [6]: only labels legumain
